Reference: US10889611B2, “Sialyltransferase inhibitors and uses thereof” (Academia Sinica, priority 2015, dated 2021)
“And” between values parts separate entries of the source, which are not always exact repeats. Identical values can stand only once.

What was measured:
[1] = target: T1, α2,6(N)-sialyltransferases ST6GALI (Homo sapiens, UniProt P15907); experiment: Sialyltransferase inhibition assay, ST6GALI (reverse-phase HPLC); type: biochemical; details: for IC50: IC50 (μM) ST6GALI, α2,6-N-link
T1 construct: purchased RnDSystems.com (R&D Systems)
T1 sequence (P15907 1-406): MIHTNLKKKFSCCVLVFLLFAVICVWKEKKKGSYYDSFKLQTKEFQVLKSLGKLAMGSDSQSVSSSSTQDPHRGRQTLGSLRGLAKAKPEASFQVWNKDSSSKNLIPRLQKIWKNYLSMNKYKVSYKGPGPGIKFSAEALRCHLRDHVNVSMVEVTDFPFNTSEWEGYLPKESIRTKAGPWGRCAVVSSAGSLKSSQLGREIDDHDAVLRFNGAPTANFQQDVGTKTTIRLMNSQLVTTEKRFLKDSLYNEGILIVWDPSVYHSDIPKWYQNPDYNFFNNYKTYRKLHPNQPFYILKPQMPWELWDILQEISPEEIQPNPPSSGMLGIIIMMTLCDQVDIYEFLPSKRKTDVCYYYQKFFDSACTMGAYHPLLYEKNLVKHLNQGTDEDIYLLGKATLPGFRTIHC
Procedure: (§1) The enzymes analyzed in the present study included rat ST3Gal(I), rat ST3Gal(III), and human ST6Gal(I). Rat ST3Gal(I) and rat ST3Gal(Ill), were purchased from Calbiochem®, while human ST6Gal(I) was purchased from RnDSystems.com.
(§2) Sialyltransferase inhibition assay (α2,6-N-ST) was performed as follows: Sialyltransferase activity was determined by measuring the level of the end product of sialylated saccharides with reverse-phase HPLC. The assay mixtures contained the following components: 200 mM MES buffer; 100 mM NaCl; 0.5 mM EDTA; 0.01% Triton X-100; 1.4 mU ST6GALI; 25 μM Galβ1-4GlcNAc; 1 mM CMP-Neu5Ac and different concentration of Sialyltransferase inhibitors to a total volume of 50 μl. The assay mixture was incubated at 37° C. for 15 mins and then quenched by heating up to 101° C. for 10 mins. The sialylated product is resolved with reversed-phase HPLC. Kinetic data were obtained by fitting the initial rate data to the nonlinear regression equation.
(§3) Effects of the present compounds on the activity of sialyltransferase, including α2,3(N)-sialyltransferase ST3GALIII, α2,6(N)-sialyltransferases ST6GALI, and α2,3(O)-sialyltransferase ST3GALI, were determined in accordance with procedures described in the “Materials and Methods” section, and results are summarized in Table 1.

[2] = target: T2, α2,3(O)-sialyltransferase ST3GALI (Rattus norvegicus, UniProt Q6H8N0); experiment: Sialyltransferase inhibition assay, ST3GALI (reverse-phase HPLC); type: biochemical; details: read-out: ST3GALI inhibition percentage; for inhibition at 500 µM: measured at 500 μM
T2 construct: purchased Calbiochem
T2 sequence (Q6H8N0 1-340): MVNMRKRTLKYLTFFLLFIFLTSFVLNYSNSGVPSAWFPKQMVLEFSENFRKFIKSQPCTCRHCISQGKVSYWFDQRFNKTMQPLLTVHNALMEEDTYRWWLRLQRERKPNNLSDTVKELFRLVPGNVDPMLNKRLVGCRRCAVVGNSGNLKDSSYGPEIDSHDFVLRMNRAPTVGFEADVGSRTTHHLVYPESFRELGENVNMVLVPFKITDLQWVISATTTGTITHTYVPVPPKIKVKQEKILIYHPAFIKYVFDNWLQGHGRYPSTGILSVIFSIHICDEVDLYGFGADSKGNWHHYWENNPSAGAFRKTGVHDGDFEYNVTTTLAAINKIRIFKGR
Procedure: as §1
as §2, with “mU ST3GALI; 2.5 mM T-antigen;” for “mU ST6GALI; 25 μM Galβ1-4GlcNAc;”, “to 101′C” for “to 101° C.”, “product was” for “product is”, “resolved by” for “resolved with”
as §3

[3] = target: T3, α2,3(N)-sialyltransferase ST3GALIII (Rattus norvegicus, UniProt Q02734); experiment: Sialyltransferase activity assay, ST3GALIII; type: biochemical; details: IC50 (μM) ST3GALIII, α2,3-N-link
T3 construct: purchased Calbiochem
T3 sequence (Q02734 1-374): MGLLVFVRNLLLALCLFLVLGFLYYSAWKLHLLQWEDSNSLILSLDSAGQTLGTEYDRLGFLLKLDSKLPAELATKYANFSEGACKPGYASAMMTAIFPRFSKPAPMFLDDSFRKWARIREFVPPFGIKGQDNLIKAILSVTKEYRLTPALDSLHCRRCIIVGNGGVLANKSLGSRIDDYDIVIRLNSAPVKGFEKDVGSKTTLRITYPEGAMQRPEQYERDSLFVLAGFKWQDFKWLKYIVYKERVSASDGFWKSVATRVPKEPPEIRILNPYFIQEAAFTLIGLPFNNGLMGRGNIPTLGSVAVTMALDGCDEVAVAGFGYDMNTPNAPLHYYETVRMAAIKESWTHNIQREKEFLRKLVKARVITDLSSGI

COc1ccc2c(CC(=O)N[C@@H](CC(=O)O)C(=O)O[C@@H]3CC[C@@]4(C)[C@H](CC[C@@H]5[C@@H]4CC[C@]4(C)C([C@H](C)CCC(=O)OCCOCCOCCOCCN=[N+]=[N-])CC[C@@H]54)C3)cc(=O)oc2c1 (stereo partly drawn) [Compound 14, (3S)-4-(((3R,5R,8R,9S,10S,13R,14S)-17-((R)-1-azido-13-oxo-3,6,9,12-tetraoxaheptadecan-16-yl)-10,13-dimethylhexadecahydro-1H-cyclopenta[a]phenanthren-3-yl)oxy)-3-(2-(7-methoxy-2-oxo-2H-chromen-4-yl)acetamido)-4-oxobutanoic acid]
selectivity ratio ST3GALI/ST6GALI [1]: >101
IC50 [1]: 4.95 ± 0.37 µM
inhibition at 500 µM [2]: 0%
melting point: 126 to 127 °C

C[C@H](CCC(=O)OCCOCCOCCN=[N+]=[N-])C1CC[C@H]2[C@@H]3CC[C@@H]4C[C@H](OC(=O)[C@H](CC(=O)O)NC(=O)c5ccc([N+](=O)[O-])cc5)CC[C@]4(C)[C@H]3CC[C@]12C (stereo partly drawn) [Compound 8, (3S)-4-(((3R,5R,8R,9S,10S,13R,14S)-17-((R)-5-(2-(2-(2-azidoethoxy)ethoxy)ethoxy)-5-oxopentan-2-yl)-10,13-dimethylhexadecahydro-1H-cyclopenta[a]phenanthren-3-yl)oxy)-3-(4-nitrobenzamido)-4-oxobutanoic acid]
selectivity ratio ST3GALI/ST6GALI [1]: >94
IC50 [1]: 5.35 ± 0.46 µM
inhibition at 500 µM [2]: 0%
melting point: 52 to 53 °C

COc1ccc2c(CC(=O)N[C@@H](CC(=O)O)C(=O)O[C@@H]3CC[C@@]4(C)[C@H](CC[C@@H]5[C@@H]4CC[C@]4(C)C([C@H](C)CCC(=O)OCCN=[N+]=[N-])CC[C@@H]54)C3)cc(=O)oc2c1 (stereo partly drawn) [Compound 11, (3S)-4-(((3R,5R,8R,9S,10 S,13R,14S)-17-((R)-5-(2-azidoethoxy)-5-oxopentan-2-yl)-10,13-dimethylhexadecahydro-1H-cyclopenta[a]phenanthren-3-yl)oxy)-3-(2-(7-methoxy-2-oxo-2H-chromen-4-yl)acetamido)-4-oxobutanoic acid]
selectivity ratio ST3GALI/ST6GALI [1]: >89
IC50 [1]: 5.59 ± 0.24 µM
inhibition at 500 µM [2]: 0%
melting point: 151 to 152 °C

COc1ccc2c(CC(=O)N[C@@H](CC(=O)O)C(=O)O[C@@H]3CC[C@@]4(C)[C@H](CC[C@@H]5[C@@H]4CC[C@]4(C)C([C@H](C)CCC(=O)OCCOCCOCCN=[N+]=[N-])CC[C@@H]54)C3)cc(=O)oc2c1 (stereo partly drawn) [Compound 13, (3S)-4-(((3R,5R,8R,9S,10S,10S,3R,14S)-17-((R)-5-(2-(2-(2-azidoethoxy)ethoxy)ethoxy)-5-oxopentan-2-yl)-10,13-dimethylhexadecahydro-1H-cyclopenta[a]phenanthren-3-yl)oxy)-3-(2-(7-methoxy-2-oxo-2H-chromen-4-yl)acetamido)-4-oxo butanoic acid]
selectivity ratio ST3GALI/ST6GALI [1]: >109
IC50 [1]: 4.61 ± 0.35 µM
inhibition at 500 µM [2]: 0%
melting point: 134 to 135 °C

COc1ccc2c(CC(=O)N[C@@H](CC(=O)O)C(=O)O[C@@H]3CC[C@@]4(C)[C@H](CC[C@@H]5[C@@H]4CC[C@]4(C)C([C@H](C)CCC(=O)OCCOCCOCCOCCOCCN=[N+]=[N-])CC[C@@H]54)C3)cc(=O)oc2c1 (stereo partly drawn) [Compound 15, (3S)-4-(((3R,5R,8R,9S,10S,13R,14S)-17-((R)-1-azido-16-oxo-3,6,9,12,15-pentaoxaicosan-19-yl)-10,13-dimethylhexadecahydro-1H-cyclopenta[a]phenanthren-3-yl)oxy)-3-(2-(7-methoxy-2-oxo-2H-chromen-4-yl)acetamido)-4-oxobutanoic acid]
selectivity ratio ST3GALI/ST6GALI [1]: >88
IC50 [1]: 5.69 ± 0.4 µM
inhibition at 500 µM [2]: 0%
melting point: 113 to 114 °C

C[C@H](CCC(=O)OCCN=[N+]=[N-])C1CC[C@H]2[C@@H]3CC[C@@H]4C[C@H](OC(=O)[C@H](CC(=O)O)NC(=O)c5ccc([N+](=O)[O-])cc5)CC[C@]4(C)[C@H]3CC[C@]12C (stereo partly drawn) [Compound 6, (3S)-4-(((3R,5R,8R,9S,10S,13R,14S)-17-((R)-5-(2-azidoethoxy)-5-oxopentan-2-yl)-10,13-dimethylhexadecahydro-1H-cyclopenta[a]phenanthren-3-yl)oxy)-3-(4-nitrobenzamido)-4-oxobutanoic acid]
selectivity ratio ST3GALI/ST6GALI [1]: >70
IC50 [1]: 7.21 ± 0.1 µM
inhibition at 500 µM [2]: 0%
melting point: 61 to 62 °C

C[C@H](CCC(=O)OCCN=[N+]=[N-])C1CC[C@H]2[C@@H]3CC[C@@H]4C[C@H](OC(=O)[C@H](CC(=O)O)Nc5ccc([N+](=O)[O-])c6nonc56)CC[C@]4(C)[C@H]3CC[C@]12C (stereo partly drawn) [Compound 1, (3S)-4-(((3R,5R,8R,9S,10S,13R,14S)-17-((R)-5-(2-azidoethoxy)-5-oxopentan-2-yl)-10,13-dimethylhexadecahydro-1H-cyclopenta[a]phenanthren-3-yl)oxy)-3-((7-nitrobenzo[c][1,2,5]oxadiazol-4-yl)amino)-4-oxobutanoic acid]
IC50 [1]: 4.2 µM and 4.33 µM
inhibition at 500 µM [2]: 0%
inhibition at 1000 µM ([2]; measured at 1 mM): 74%
melting point: 78 to 79 °C
IC50 [3]: 0.8 µM and 0.77 µM

COc1ccc2c(CC(=O)N[C@@H](CC(=O)O)C(=O)O[C@@H]3CC[C@@]4(C)[C@H](CC[C@@H]5[C@@H]4CC[C@]4(C)C([C@H](C)CCC(=O)OCCOCCN=[N+]=[N-])CC[C@@H]54)C3)cc(=O)oc2c1 (stereo partly drawn) [Compound 12, (3S)-4-(((3R,5R,8R,9S,10S,13R,14S)-17-((R)-5-(2-(2-azidoethoxy)ethoxy)-5-oxopentan-2-yl)-10,13-dimethylhexadecahydro-1H-cyclopenta[a]phenanthren-3-yl)oxy)-3-(2-(7-methoxy-2-oxo-2H-chromen-4-yl)acetamido)-4-oxobutanoic acid]
selectivity ratio ST3GALI/ST6GALI [1]: >97
IC50 [1]: 5.14 ± 0.11 µM
inhibition at 500 µM [2]: 0%
melting point: 142 to 143 °C
